From ChEMBL document CHEMBL5346927, “Discovery of a novel 1H-pyrazole- [3,4-b] pyridine-based lysine demethylase 5B inhibitor with potential anti-prostate cancer activity that perturbs the phosphoinositide 3-kinase/AKT pathway” (Eur J Med Chem, 2023)
The source made the active and inactive calls. The rule behind the calls is not given here.

What was measured:
PC-3 [1] = assay: Induction of apoptosis in human PC-3 cells assessed as necrotic cells at 2.5 uM incubated for 72 hrs by Annexin V-FITC/PI staining based flow cytometric analysis (reference value: 5.01%); assay type: functional
[2] = Acute toxicity in Kunming mouse assessed as effect on spleen at 2 g/Kg, IG measured after 2 weeks by H&E staining based analysis; assay type: tissue-based; settings: in vivo, po, 2000 mg/kg, 336 h
[3] = Toxicity in BALB/C nude mouse xenografted with human PC-3 cells assessed as liver damage at 25 to 50 mg/kg, IG administered for 25 days by H&E staining based analysis; assay type: organism-based; settings: in vivo, po, 600 h, dose 25-50 mg/kg, time 25 day
PC-3 [4] = assay: Induction of cell cycle arrest in human PC-3 cells assessed as increase in G2/M phase cell ratio at 10 uM incubated for 24 hrs by PI/RNase A staining based flow cytometric analysis (reference value: 16.07%); assay type: functional
PC-3 [5] = assay: Induction of apoptosis in human PC-3 cells assessed as early apoptotic cells at 10 uM incubated for 72 hrs by Annexin V-FITC/PI staining based flow cytometric analysis (reference value: 3.01%); assay type: functional
[6] = AUC (0 to t) in ICR mouse at 25 mg/kg, IG measured at 0.083 to 24 hrs by LC-MS analysis; assay type: ADME, organism-based; set-up: dose 25 mg/kg, time upper 24 hrs, time lower 0.083 hrs, route ig; settings: in vivo, po
PC-3 [7] = assay: Induction of apoptosis in human PC-3 cells assessed as viable cells at 10 uM incubated for 72 hrs by Annexin V-FITC/PI staining based flow cytometric analysis (reference value: 90.93%); assay type: functional; settings: read-out: Activity
PC-3 [8] = assay: Induction of apoptosis in human PC-3 cells assessed as late apoptotic cells at 10 uM incubated for 72 hrs by Annexin V-FITC/PI staining based flow cytometric analysis (reference value: 1.05%); assay type: functional
DU-145 = assay: Antiproliferative activity against human DU-145 cells assessed as inhibition of cell proliferation incubated for 72 hrs by MTT assay; assay type: functional, cell-based; settings: DU-145, 72 h
PC-3 [9] = assay: Induction of apoptosis in human PC-3 cells assessed as necrotic cells at 10 uM incubated for 72 hrs by Annexin V-FITC/PI staining based flow cytometric analysis (reference value: 5.01%); assay type: functional
[10] = Oral bioavailability in ICR mouse at 25 mg/kg measured at 0.083 to 24 hrs by LC-MS analysis; assay type: ADME, organism-based; settings: in vivo, time 0.083-24 hrs
PC-3 [11] = assay: Inhibition of PI3K/AKT pathway in human PC-3 cells assessed as decrease in AKT phosphorylation at Thr308 residue at 20 uM by Western blot analysis relative to control; assay type: cell-based
[12] = MRT (0 to t) in ICR mouse at 5 mg/kg, iv measured at 0.083 to 24 hrs by LC-MS analysis; assay type: ADME, organism-based; settings: in vivo, time 0.083-24 hrs
[13] = Toxicity in BALB/C nude mouse xenografted with human PC-3 cells assessed as lung damage at 25 to 50 mg/kg, IG administered for 25 days by H&E staining based analysis; assay type: organism-based; settings: in vivo, po, 600 h, dose 25-50 mg/kg, time 25 day
PC-3 [14] = assay: Inhibition of PI3K/AKT pathway in human PC-3 cells assessed as decrease in P110alpha level at 2.5 to 5 uM by Western blot analysis; assay type: cell-based; settings: dose 2.5-5 µM
PC-3 [15] = assay: Induction of cell cycle arrest in human PC-3 cells assessed as increase in G2/M phase cell ratio at 5 uM incubated for 24 hrs by PI/RNase A staining based flow cytometric analysis (reference value: 16.07%); assay type: functional
[16] = target: T1, Lysine-specific demethylase 5B (Homo sapiens, UniProt Q9UGL1); assay: Inhibition of KDM5B (unknown origin) at 10 uM relative to control
[17] = Acute toxicity in Kunming mouse assessed as effect on heart at 2 g/Kg, IG measured after 2 weeks by H&E staining based analysis; assay type: tissue-based; settings: in vivo, po, 2000 mg/kg, 336 h
PC-3 [18] = assay: Inhibition of PI3K/AKT pathway in human PC-3 cells assessed as decrease in AKT phosphorylation at Ser473 residue at 2.5 to 10 uM by Western blot analysis; assay type: cell-based; settings: dose 2.5-10 µM
[19] = Toxicity in BALB/C nude mouse xenografted with human PC-3 cells assessed as indistinct prostate tube wall at 25 mg/kg, IG administered for 25 days by H&E staining based analysis; assay type: organism-based; settings: in vivo, po, 600 h, time 25 day
[20] = Acute toxicity in Kunming mouse assessed as prostate gland damage at 2 g/Kg, IG measured after 2 weeks by H&E staining based analysis; assay type: tissue-based; settings: in vivo, po, 2000 mg/kg, 336 h
PC-3 [21] = assay: Induction of apoptosis in human PC-3 cells assessed as early apoptotic cells at 2.5 uM incubated for 72 hrs by Annexin V-FITC/PI staining based flow cytometric analysis (reference value: 3.01%); assay type: functional
[22] = Toxicity in BALB/C nude mouse xenografted with human PC-3 cells assessed as kidney damage at 25 to 50 mg/kg, IG administered for 25 days by H&E staining based analysis; assay type: organism-based; settings: in vivo, po, 600 h, dose 25-50 mg/kg, time 25 day
[23] = target: T1, Lysine-specific demethylase 5B; assay: Inhibition of KDM5B in human PC-3 cells assessed as H3K4me1 accumulation incubated for 72 hrs by Western blot analysis; assay type: cell-based
PC-3 [24] = assay: Inhibition of colony formation in human PC-3 cells incubated for 72 hrs by crystal violet staining based microplate reader analysis; assay type: functional, cell-based; settings: dose 1.25-5 µM
PC-3 [25] = assay: Induction of apoptosis in human PC-3 cells assessed as viable cells at 5 uM incubated for 72 hrs by Annexin V-FITC/PI staining based flow cytometric analysis (reference value: 90.93%); assay type: functional; settings: read-out: Activity
PC-3 [26] = assay: Induction of apoptosis in human PC-3 cells assessed as necrotic cells at 5 uM incubated for 72 hrs by Annexin V-FITC/PI staining based flow cytometric analysis (reference value: 5.01%); assay type: functional
PC-3 [27] = assay: Induction of apoptosis in human PC-3 cells assessed as early apoptotic cells at 5 uM incubated for 72 hrs by Annexin V-FITC/PI staining based flow cytometric analysis (reference value: 3.01%); assay type: functional
PC-3 [28] = assay: Inhibition of PI3K/AKT pathway in human PC-3 cells assessed as decrease in AKT phosphorylation at Thr308 residue at 2.5 to 10 uM by Western blot analysis; assay type: cell-based; settings: dose 2.5-10 µM
[29] = Toxicity in BALB/C nude mouse xenografted with human PC-3 cells assessed as heart damage at 25 to 50 mg/kg, IG administered for 25 days by H&E staining based analysis; assay type: organism-based; settings: in vivo, po, 600 h, dose 25-50 mg/kg, time 25 day
[30] = Cmax in ICR mouse at 25 mg/kg, IG measured at 0.083 to 24 hrs by LC-MS analysis; assay type: ADME, organism-based; set-up: time lower 0.083 hrs, dose 25 mg/kg, time upper 24 hrs, route ig; settings: in vivo, po
LNCaP = assay: Induction of cell cycle arrest in human LNCaP cells assessed as accumulation of cells at G2/M phase at 5 micromol/L incubated for 48 hrs by PI/RNaseA staining based flow cytometric analysis; assay type: functional; settings: dose 5.0 µmol/L
[31] = target: T1, Lysine-specific demethylase 5B; assay: Binding affinity to KDM5B in human PC-3 cells assessed as thermal stability by measuring KDM5B expression level preincubated with compound for 6 hrs followed by 20 mins incubation under 46 to 56 degreeC by CETSA based Western blot analysis; assay type: cell-based; settings: time 380.0 min
[32] = Acute toxicity in Kunming mouse assessed as effect on liver at 2 g/Kg, IG measured after 2 weeks by H&E staining based analysis; assay type: tissue-based; settings: in vivo, po, 2000 mg/kg, 336 h
[33] = Acute toxicity in Kunming mouse assessed as effect on survival at 2 g/Kg, IG measured after 2 weeks; settings: in vivo, po, 2000 mg/kg, 336 h

T1 sequence (Q9UGL1 whole entry): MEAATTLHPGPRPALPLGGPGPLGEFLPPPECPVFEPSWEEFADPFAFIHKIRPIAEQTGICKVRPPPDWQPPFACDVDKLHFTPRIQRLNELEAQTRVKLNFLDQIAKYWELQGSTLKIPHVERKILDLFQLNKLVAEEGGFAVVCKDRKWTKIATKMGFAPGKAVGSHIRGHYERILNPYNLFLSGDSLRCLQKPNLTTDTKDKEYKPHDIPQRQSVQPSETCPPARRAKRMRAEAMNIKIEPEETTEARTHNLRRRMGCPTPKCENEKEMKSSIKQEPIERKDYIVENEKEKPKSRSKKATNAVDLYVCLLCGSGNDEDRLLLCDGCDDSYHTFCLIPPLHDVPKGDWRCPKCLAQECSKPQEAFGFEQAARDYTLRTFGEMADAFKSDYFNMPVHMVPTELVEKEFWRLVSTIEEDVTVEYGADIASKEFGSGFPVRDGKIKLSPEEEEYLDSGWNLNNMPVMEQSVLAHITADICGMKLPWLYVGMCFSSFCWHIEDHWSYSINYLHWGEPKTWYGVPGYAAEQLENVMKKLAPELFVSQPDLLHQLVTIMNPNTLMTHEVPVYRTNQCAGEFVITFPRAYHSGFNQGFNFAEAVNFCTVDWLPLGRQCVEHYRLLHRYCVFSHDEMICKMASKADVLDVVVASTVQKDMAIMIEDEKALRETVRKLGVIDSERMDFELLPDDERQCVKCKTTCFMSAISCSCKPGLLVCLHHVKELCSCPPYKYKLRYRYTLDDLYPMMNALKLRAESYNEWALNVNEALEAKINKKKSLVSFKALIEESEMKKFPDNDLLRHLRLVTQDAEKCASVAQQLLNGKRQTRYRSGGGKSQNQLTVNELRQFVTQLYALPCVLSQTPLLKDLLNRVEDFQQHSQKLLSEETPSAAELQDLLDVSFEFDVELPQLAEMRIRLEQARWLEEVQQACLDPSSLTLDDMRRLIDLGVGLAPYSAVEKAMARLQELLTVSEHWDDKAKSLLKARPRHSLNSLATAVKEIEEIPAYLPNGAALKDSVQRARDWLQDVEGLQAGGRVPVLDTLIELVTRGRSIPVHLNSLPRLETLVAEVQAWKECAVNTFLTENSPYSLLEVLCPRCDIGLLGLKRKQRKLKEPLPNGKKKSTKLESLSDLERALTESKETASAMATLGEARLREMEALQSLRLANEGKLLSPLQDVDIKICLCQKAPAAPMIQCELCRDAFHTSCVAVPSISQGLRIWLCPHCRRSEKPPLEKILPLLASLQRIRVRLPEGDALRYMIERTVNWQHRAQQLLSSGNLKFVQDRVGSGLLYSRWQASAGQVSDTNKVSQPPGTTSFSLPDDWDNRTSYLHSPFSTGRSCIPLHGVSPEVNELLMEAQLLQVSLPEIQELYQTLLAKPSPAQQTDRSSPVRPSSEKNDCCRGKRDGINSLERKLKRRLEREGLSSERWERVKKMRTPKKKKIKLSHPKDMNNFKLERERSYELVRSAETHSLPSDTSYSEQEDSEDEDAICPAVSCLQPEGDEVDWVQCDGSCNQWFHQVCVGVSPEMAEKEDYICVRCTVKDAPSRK

Compound: CN1CCN(CCNC(=O)c2cc(-c3ccc4ccccc4c3)nc3c2cnn3-c2ccccc2)CC1
- Activity (PC-3 [1]): 18.36%
- Activity [2]: Non-Toxic
- Activity [3]: Non-Toxic
- Activity (PC-3 [4]): 75.33%
- Activity (PC-3 [5]): 0.81%
- AUCt [6]: 3024.33 ng·h/mL
- viability at 10 µM (PC-3 [7]): 58.8%
- Activity (PC-3 [8]): 16.39%
- IC50 (DU-145): 9.53 µM
- Activity (PC-3 [9]): 23.96%
- F [10]: 20.28%
- inhibition (PC-3 [11]): 60%
- MRT(t) [12]: 10.29 h
- Activity [13]: Non-Toxic
- inhibition (PC-3 [14]): inactive
- Activity (PC-3 [15]): 27.47%
- inhibition [16]: 102%
- Activity [17]: Non-Toxic
- inhibition (PC-3 [18]): inactive
- Activity [19]: Non-Toxic
- Activity [20]: Non-Toxic
- Activity (PC-3 [21]): 0.7%
- Activity [22]: Non-Toxic
- inhibition [23]: Dose-Dependent Effect
- inhibition (PC-3 [24]): Dose-Dependent Effect
- viability at 5 µM (PC-3 [25]): 73%
- Activity (PC-3 [26]): 18.77%
- Activity (PC-3 [27]): 0.64%
- inhibition (PC-3 [28]): inactive
- Activity [29]: Non-Toxic
- Cmax [30]: 412 ng/mL
- Activity (LNCaP): inactive
- Activity [31]: Active
- Activity [32]: Non-Toxic
- Activity [33]: Non-Toxic
